From US9828379B2 (priority 2013, dated 2017) come the findings set out here.

What is called inhibition is how much of the control response was suppressed. As usually defined, the IC50 is the concentration needed to halve the response being measured.

The structures appear in SMILES notation.

Experiment [1] addresses T1, MAGL (Mus musculus, UniProt O35678).
T1 sequence (O35678 1-303): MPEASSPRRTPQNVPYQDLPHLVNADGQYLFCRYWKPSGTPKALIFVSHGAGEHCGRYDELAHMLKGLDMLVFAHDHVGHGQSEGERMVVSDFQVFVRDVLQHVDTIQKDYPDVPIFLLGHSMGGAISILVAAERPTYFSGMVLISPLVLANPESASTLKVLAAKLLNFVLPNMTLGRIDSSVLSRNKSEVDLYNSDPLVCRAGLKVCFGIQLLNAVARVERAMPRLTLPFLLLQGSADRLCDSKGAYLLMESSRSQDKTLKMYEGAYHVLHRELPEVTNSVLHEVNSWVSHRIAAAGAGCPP
Description: In vitro competitive activity-based protein profiling (Table 2, % inhibition at 1 μM). The experiment is classed as biochemical. Particulars: read-out: % Inhibition at 1 μM MAGL. On the procedure: After 30 min, FP—Rh (1.0 μL, 50 μM in DMSO) was added and the mixture was incubated for another 30 min at 37° C. Reactions were quenched with SDS loading buffer (50 μL-4×) and run on SDS-PAGE.
Cell lysates were diluted with mock proteomes for use in competitive ABPP experiments.

The target of experiment [2] is T1, MAGL. As to the kind of experiment: biochemical. Particulars: mouse; in vitro competitive ABPP; read-out: Mouse (IC50 value, nM) MAGL.
Experiment [3] concerns the target T2, FAAH (Mus musculus, UniProt O08914).
T2 sequence (O08914 1-579): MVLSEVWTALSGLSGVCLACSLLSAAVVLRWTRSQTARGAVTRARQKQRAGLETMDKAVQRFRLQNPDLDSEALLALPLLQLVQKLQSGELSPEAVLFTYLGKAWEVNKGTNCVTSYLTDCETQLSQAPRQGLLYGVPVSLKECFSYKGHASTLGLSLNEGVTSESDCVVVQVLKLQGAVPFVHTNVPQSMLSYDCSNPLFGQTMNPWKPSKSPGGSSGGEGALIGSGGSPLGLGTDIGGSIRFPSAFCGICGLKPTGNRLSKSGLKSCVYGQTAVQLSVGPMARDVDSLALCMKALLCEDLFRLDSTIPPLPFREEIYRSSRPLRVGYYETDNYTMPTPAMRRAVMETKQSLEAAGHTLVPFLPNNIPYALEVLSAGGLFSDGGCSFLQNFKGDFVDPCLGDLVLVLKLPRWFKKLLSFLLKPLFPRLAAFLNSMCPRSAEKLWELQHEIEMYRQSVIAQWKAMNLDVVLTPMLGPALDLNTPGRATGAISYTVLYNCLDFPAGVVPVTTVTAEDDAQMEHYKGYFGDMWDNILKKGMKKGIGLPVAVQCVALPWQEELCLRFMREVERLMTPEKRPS
As to the kind of experiment: biochemical. Particulars: in vitro competitive ABPP.

For the next experiment, the target named is T3, Mouse brain MAGL (Mus musculus, UniProt O35678).
T3 construct: from tissue; host or cells: brain of wild-type C57Bl/6J mice dosed by oral gavage
T3 sequence (O35678 1-303): T1 sequence (O35678 1-303)
As to the kind of experiment: Mouse brain proteomes from inhibitor treated mice (oral gavage, ABPP analysis). The experiment is classed as in vivo. Particulars: p.o., sacrificed 4 h following administration. On the procedure: After 30 min, FP—Rh (1.0 μL, 50 μM in DMSO) was added and the mixture was incubated for another 30 min at 37° C. Reactions were quenched with SDS loading buffer (50 μL-4×) and run on SDS-PAGE. Following gel imaging, serine hydrolase activity was determined by measuring fluorescent intensity of gel bands corresponding to MAGL, ABHD6 and FAAH using ImageJ 1.43 u software.
Inhibitors were administered to wild-type C57Bl/6J by oral gavage in a vehicle of polyethylene glycol. Each animal was sacrificed 4 h following administration and brain proteomes were prepared and analyzed according to previously established methods (See Niphakis, M. J., et al. (2011) ACS Chem. Neurosci. and Long, J. Z., et al. Nat. Chem. Biol. 5:37-44).

The target of experiment [4] is T4, ABHD6 (Mus musculus, UniProt Q8R2Y0).
T4 sequence (Q8R2Y0 1-336): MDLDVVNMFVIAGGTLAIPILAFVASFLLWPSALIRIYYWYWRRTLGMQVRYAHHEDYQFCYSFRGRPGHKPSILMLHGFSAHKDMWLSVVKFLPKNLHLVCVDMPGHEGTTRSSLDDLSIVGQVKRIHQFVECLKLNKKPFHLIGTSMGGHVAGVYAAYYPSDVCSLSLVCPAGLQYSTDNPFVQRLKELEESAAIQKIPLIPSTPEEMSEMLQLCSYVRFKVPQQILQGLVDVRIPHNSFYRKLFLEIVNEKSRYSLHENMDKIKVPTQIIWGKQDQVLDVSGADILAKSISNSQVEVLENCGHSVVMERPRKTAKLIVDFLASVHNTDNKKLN
As to the kind of experiment: biochemical. Particulars: in vitro competitive ABPP.

In experiment [5] the target is T2, FAAH. Description: In vitro competitive activity-based protein profiling (Table 2, % inhibition at 1 μM). The experiment is classed as biochemical. Particulars: read-out: % Inhibition at 1 μM FAAH.
In experiment [6] the target is T4, ABHD6. The experiment is described as above. It counts as biochemical. Particulars: read-out: % Inhibition at 1 μM ABHD6.

As to `Cn1cc(CN2CC3CN(C(=O)OC(C(F)(F)F)C(F)(F)F)CC3C2)c(-c2ccccc2)n1` (stereo not drawn) [Example 50, 1,1,1,3,3,3-Hexafluoropropan-2-yl 5-((1-methyl-3-phenyl-1H-pyrazol-4-yl)methyl)hexahydropyrrolo[3,4-c]pyrrole-2(1H)-carboxylate], the inhibition at 1 µM at MAGL [1] is greater than 75%; at FAAH [5], less than 25%; on ABHD6 [6] it was 25 to 75%. Moreover, the IC50 at MAGL [2] was less than 100 nM; at FAAH [3] it was 1000 to 10000 nM; on ABHD6 [4], 1000 to 10000 nM. At Mouse brain MAGL, this compound returned an inhibition at 5 mg/kg of 25 to 75%.

As to `O=C(OC(C(F)(F)F)C(F)(F)F)N1CC2CN(Cc3cccc(Cl)c3N3CCC(F)CC3)CC2C1` (stereo not drawn) [Example 159, 1,1,1,3,3,3-hexafluoropropan-2-yl 5-[[3-chloro-2-(4-fluoropiperidin-1-yl)phenyl]methyl]-octahydropyrrolo[3,4-c]pyrrole-2-carboxylate], the results for the inhibition at 1 µM at MAGL [1], at FAAH [5] and at ABHD6 [6] were greater than 75%, less than 25% and less than 25%, respectively. For the same compound, the IC50 at MAGL [2] is less than 100 nM; on FAAH [3], greater than 10000 nM; on ABHD6 [4], 1000 to 10000 nM. On Mouse brain MAGL, the inhibition at 5 mg/kg is no more than 25%.

On to `CS(=O)(=O)N1CCC2(CCN(c3ccccc3CN3CC4CN(C(=O)OC(C(F)(F)F)C(F)(F)F)CC4C3)C2)C1` (stereo not drawn) [Example 134, 1,1,1,3,3,3-hexafluoropropan-2-yl 5-[(2-[7-methanesulfonyl-2,7-diazaspiro[4.4]nonan-2-yl]phenyl)methyl]-octahydropyrrolo[3,4-c]pyrrole-2-carboxylate], for which the inhibition at 1 µM on MAGL [1] is greater than 75%; at FAAH [5], 25 to 75%; on ABHD6 [6] it was less than 25%. Further, the IC50 at MAGL [2] is less than 100 nM; at FAAH [3], 1000 to 10000 nM; at ABHD6 [4] it was 1000 to 10000 nM. Also, the inhibition at 5 mg/kg at Mouse brain MAGL is no more than 25%.

As for `CC(=O)N1CC2(CCN(c3ccccc3CN3CC4CN(C(=O)OC(C(F)(F)F)C(F)(F)F)CC4C3)C2)C1` (stereo not drawn) [Example 137, 1,1,1,3,3,3-hexafluoropropan-2-yl 5-[(2-[2-acetyl-2,6-diazaspiro[3.4]octan-6-yl]phenyl)methyl]-octahydropyrrolo[3,4-c]pyrrole-2-carboxylate], the figures for the inhibition at 1 µM at MAGL [1], on FAAH [5] and on ABHD6 [6] were greater than 75%, less than 25% and less than 25%, respectively. Moreover, the IC50 on MAGL [2] is less than 100 nM; on FAAH [3], 1000 to 10000 nM; at ABHD6 [4], 1000 to 10000 nM. The compound further yielded an inhibition at 5 mg/kg at Mouse brain MAGL of no more than 25%.

Take `CC(=O)N1CCC2(CCN(c3ccccc3CN3CC4CN(C(=O)OC(C(F)(F)F)C(F)(F)F)CC4C3)C2)C1` (stereo not drawn) [Example 135, 1,1,1,3,3,3-hexafluoropropan-2-yl 5-[(2-[7-acetyl-2,7-diazaspiro[4.4]nonan-2-yl]phenyl)methyl]-octahydropyrrolo[3,4-c]pyrrole-2-carboxylate]: the inhibition at 1 µM on MAGL [1] is greater than 75%; at FAAH [5] it was less than 25%; on ABHD6 [6] it was less than 25%. Also, the concentration for half-maximal inhibition (IC50) on MAGL [2] was less than 100 nM; at FAAH [3], 1000 to 10000 nM; on ABHD6 [4] it was 1000 to 10000 nM. Further, the inhibition at 5 mg/kg against Mouse brain MAGL is no more than 25%.

As for `Cc1c(CN2CC3CN(C(=O)OC(C(F)(F)F)C(F)(F)F)CC3C2)cccc1N1CCCCC1` (stereo not drawn) [Example 29, 1,1,1,3,3,3-Hexafluoropropan-2-yl 5-[[2-methyl-3-(piperidin-1-yl)phenyl]methyl]-octahydropyrrolo[3,4-c]pyrrole-2-carboxylate], the results for the inhibition at 1 µM at MAGL [1], on FAAH [5] and on ABHD6 [6] were greater than 75%, 25 to 75% and less than 25%, respectively. Further, the results for the half-maximal inhibitory concentration (IC50) on MAGL [2], on FAAH [3] and at ABHD6 [4] were less than 100 nM, 1000 to 10000 nM and greater than 10000 nM, respectively. On Mouse brain MAGL, the inhibition at 5 mg/kg is no more than 25%.
